Tests used:
[1] = tested on: SRS-A-induced component of anaphylactic bronchoconstriction; test: Inhibitory activity on bronchial anaphylaxis in conscious guinea pigs (SRS-A preferentially involved in bronchoconstriction); assay type: in vivo, guinea pig; conditions: Cavia porcellus; oral; actively sensitized (egg albumin) conscious guinea pigs, 10 mg/kg diphenhydramine intraperitoneally, inhaled antigen; read-out: ED75 (oral dose required to protect 75% of animals from respiratory distress caused by antigen challenge)
Procedure: The effect of the compounds of this invention on bronchial anaphylactic reaction in vivo was evaluated using conscious guinea pigs in a condition where SRS-A was preferentially involved in bronchoconstriction (Boot, J. R. et al.: Int. Arch. Allergy Appl. Immunol. 67, 340 (1982)). The guinea pigs which had been sensitized actively with egg albumin 3 to 4 weeks prior were given intraperitoneally with 10 mg/kg diphenhydramine. In these animals, inhaled antigen caused a marked respiratory distress due to bronchoconstriction. The ED75 values in Table 7 indicate the oral dose of test compound required to protect 75% of animals from respiratory distress caused by antigen challenge.

[2] = tested on: SRS-A; test: Antagonistic action against SRS-A (SRS-A induced contraction of isolated guinea pig ileum); conditions: 3 U/ml SRS-A, 5 minutes incubation, tripelennamine and atropine in Tyrode solution
Procedure: The anti-SRS-A action of the compounds of this invention was evaluated using isolated guinea pig ileum. Short segments of guinea pig terminal ileum were suspended in Tyrode solution containing tripelennamine (3×10^-7 g/ml) and atropine (3×10^-7 g/ml) and their contractions induced by an addition to the organ bath of 3 U/ml SRS-A* were recorded. The ileum was again contracted after incubation with test compounds for 5 minutes by adding the same amount of SRS-A. The anti-SRS-A action is given in Table 6 as IC50 values which indicate the concentration of test compound required to inhibit SRS-A induced ileal contraction by 50%.
*: The SRS-A used in this experiment was prepared from anaphylactic guinea pig lungs. One unit of SRS-A refers to the amount required to produce a contraction of the guinea pig ileum equal in amplitude to that produced by 5 ng histamine base.

Compound | ED75 [1] [mg/kg] | Antagonistic activity against SRS-A IC50 [2] [µg/mL]
Cn1c(=O)c2[nH]cnc2n(C)c1=O [Aminophylline, reference compound] | 3.5 | 
CC(C)c1nn2ccccc2c1C(O)C(C)C (centres unmarked) [Example 5, 2-Isopropyl-3-(1-hydroxy-2-methylpropyl)pyrazolo[1,5-a]pyridine] | 0.48 | 1.75
CC(C)c1nn2ccccc2c1C(O)C1CCCC1 (centres unmarked) [Example 6] |  | 10.3
CCC(O)c1c(C(C)C)nn2ccccc12 (centres unmarked) [Example 8, 2-isopropyl-3-(1-hydroxypropyl)pyrazolo[1,5-a]pyridine] |  | 27
CCCC(O)c1c(C(C)C)nn2ccccc12 (centres unmarked) [Example 9] |  | 26.8
Cc1nn2ccccc2c1C(O)C(C)C (centres unmarked) [Example 10] |  | 10.3
CCCc1nn2ccccc2c1C(O)CCC (centres unmarked) [Example 11] |  | 16.4
COc1ccc2c(C(O)C(C)C)c(C(C)C)nn2c1 (centres unmarked) [Example 13] | 0.5 | 4.9
CCC(O)(c1c(C(C)C)nn2ccccc12)C(C)C (centres unmarked) [Example 15, 2-Isopropyl-3-(1-hydroxy-1-ethyl-2-methylpropyl)pyrazolo[1,5-a]pyridine] | 0.68 | 1.75
CC(C)c1nn2ccccc2c1C(C)(O)C(C)C (centres unmarked) [Example 16] |  | 23.5
CCCC(O)(c1c(C(C)C)nn2ccccc12)C(C)C (centres unmarked) [Example 17] | 0.75 | 2.03
CCCCC(O)(c1c(C(C)C)nn2ccccc12)C(C)C (centres unmarked) [Example 18] | 0.5 | 0.84
CCCCCCC(O)(c1c(C(C)C)nn2ccccc12)C(C)C (centres unmarked) [Example 19] |  | 2.14
C=CCC(O)(c1c(C(C)C)nn2ccccc12)C(C)C (centres unmarked) [Example 20] | 0.5 | 1.51
COC(c1c(C(C)C)nn2ccccc12)C(C)C (centres unmarked) [Example 21, 2-Isopropyl-3-(1-methoxy-2-methylpropyl)pyrazolo[1,5-a]pyridine] | 0.36 | 6.6
CCOC(c1c(C(C)C)nn2ccccc12)C(C)C (centres unmarked) [Example 22] |  | 7.2
C=CCOC(c1c(C(C)C)nn2ccccc12)C(C)C (centres unmarked) [Example 23] | 0.5 | 1.06
CCCOC(c1c(C(C)C)nn2ccccc12)C(C)C (centres unmarked) [Example 24] |  | 5.09
CCCCOC(c1c(C(C)C)nn2ccccc12)C(C)C (centres unmarked) [Example 25] |  | 9.98

Compound | ED75 [1] [mg/kg] | Antagonistic activity against SRS-A IC50 [2] [µg/mL]
COC(c1c(C(C)C)nn2cc(C)ccc12)C(C)C (centres unmarked) [Example 26] |  | 18.4
C=CCOC(c1c(C(C)C)nn2cc(C)ccc12)C(C)C (centres unmarked) [Example 27] |  | 3.93
COc1ccc2c(C(OC)C(C)C)c(C(C)C)nn2c1 (centres unmarked) [Example 28] |  | 7.36
C=CCOC(c1c(C(C)C)nn2cc(OC)ccc12)C(C)C (centres unmarked) [Example 29] |  | 3.84
CCC(OC)(c1c(C(C)C)nn2ccccc12)C(C)C (centres unmarked) [Example 30] | 1 | 1.52
C=CCOC(CC)(c1c(C(C)C)nn2ccccc12)C(C)C (centres unmarked) [Example 31, 2-isopropyl-3-(1-allyloxy-1-ethyl-2-methylpropyl)pyrazolo[1,5-a]pyridine] | 0.5 | 0.27
C=CCOC(CCC)(c1c(C(C)C)nn2ccccc12)C(C)C (centres unmarked) [Example 32] | 2 | 0.52
C=CCOC(CCCC)(c1c(C(C)C)nn2ccccc12)C(C)C (centres unmarked) [Example 33] |  | 2.36
CC(C)c1nn2ccccc2c1C(OCC1CO1)C(C)C (centres unmarked) [Example 34, 2-isopropyl-3-[1-(2,3-epoxypropoxy)-2-methylpropyl]pyrazolo[1,5-a]pyridine] |  | 7.33
CCCOC(CC)(c1c(C(C)C)nn2ccccc12)C(C)C (centres unmarked) [Example 35, 2-Isopropyl-3-(1-ethyl-1-propoxy-2-methylpropyl)pyrazolo[1,5-a]pyridine] | 0.5 | 1.23
CC(O)COC(c1c(C(C)C)nn2ccccc12)C(C)C (centres unmarked) [Example 36, 2-Isopropyl-3-[1-(2-hydroxypropoxy)-2-methylpropyl]pyrazolo[1,5-a]pyridine] |  | 14.9
COCc1c(C(C)C)nn2ccccc12 [Example 37, 2-Isopropyl-3-methoxymethylpyrazolo[1,5-a]pyridine] |  | 14.7
CCCc1c(C(C)C)nn2ccccc12 [Example 39, 2-Isopropyl-3-propylpyrazolo[1,5-a]pyridine] |  | 2.8
CC(C)=Cc1c(C(C)C)nn2ccccc12 [Example 40] |  | 2.7
C=C(c1c(C(C)C)nn2ccccc12)C(C)C [Example 41] |  | 2.45
CC=C(c1c(C(C)C)nn2ccccc12)C(C)C [Example 42] |  | 0.44
CC(C)Cc1c(C(C)C)nn2ccccc12 [Example 43] |  | 2.7
CC(C)c1nn2ccccc2c1C(C)C(C)C (centres unmarked) [Example 44] | 0.5 | 1.6

Source: patent US4578392A, “Pyrazolo[1,5-a]pyridine derivatives and anti-allergic compositions containing them” (Kyorin Pharmaceutical Co., Ltd., priority 1983, dated 1986)
